In PMC4967259 (The American journal on addictions / American Academy of …, 2016):
Read-outs that look alike come from different tables or passages of the source.

How the values were obtained:
[1] = for elimination half-life: metabolite in plasma after iv cocaine, unaffected by donepezil treatment
rats [2] = conditions: cited from earlier work
Cardiovascular response = assay type: in vivo, human
rodent = rodent studies, acute; cited from earlier work
rats [3] = conditions: cited from earlier work; remark: listed apart in the source
[4] = rat model of ischemic heart disease

COC(=O)[C@@H]1[C@H]2CC[C@@H](C[C@@H]1O)N2C [Ecgonine Methyl Ester, ecgonine methyl ester]
elimination half-life [1]: approximately five hours

CNC(=O)Oc1ccc2c(c1)[C@]1(C)CCN(C)[C@@H]1N2C [physostigmine]
cocaine-induced lethality (rats [2]; high doses of physostigmine): increased | cocaine-induced lethality (rats [2]; low doses of physostigmine): decreased

COC(=O)[C@H]1[C@@H](OC(=O)c2ccccc2)C[C@@H]2CC[C@H]1N2C [Cocaine, cocaine]
change in systolic blood pressure (Cardiovascular response; iv cocaine 0.18 and 0.36 mg/kg, most pronounced over the initial 30 minutes): dose-related increases | Tmax ([1]; human, in vivo, iv, 0.36 mg/kg): 10 min

CN1[C@H]2CC[C@@H]1[C@@H](C(=O)O)[C@@H](OC(=O)c1ccccc1)C2 [Benzoylecgonine, benzoylecgonine]
elimination half-life [1]: approximately six hours

COc1cc2c(cc1OC)C(=O)C(CC1CCN(Cc3ccccc3)CC1)C2 (centres unmarked) [Donepezil, donepezil]
cocaine self-administration (rodent): attenuate cocaine self-administration | effect on increases in blood pressure (Cardiovascular response; oral donepezil 5 mg daily, high-dose cocaine (0.36 mg/kg iv)): not affected | effect on diastolic blood pressure and heart rate after cocaine (Cardiovascular response; oral donepezil 5 mg daily, iv cocaine, data not shown): unaffected | effect on peak values of blood pressure and heart rate (Cardiovascular response; oral donepezil 5 mg daily, iv placebo or cocaine 0.18 and 0.36 mg/kg): did not modify peak values | effect on drug-induced elevations of systolic blood pressure (Cardiovascular response; oral donepezil 5 mg daily, low-dose cocaine (0.18 mg/kg iv), p < 0.001): attenuated | blood pressure (rats [3]; [4]): without affecting blood pressure | heart rate (rats [3]; [4]): decreased heart rate | heart failure and survival (rats [3]; rat, following coronary artery ligation): prevent heart failure and improve survival
